Results as given in ChEMBL document CHEMBL1201862, “PubChem BioAssay data set” (2004).
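1) Cells in 96-well plates. 2) Compound, 48 h, 5 concentrations. 3) Linear interpolation between surrounding doses. 4) Unreached endpoint = highest concentration. Abbreviation: GI50, concentration required for 50% inhibition of growth.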 Calls of active or inactive are those of the source. No stated cut-off is given here; in the data, active = GI50 up to about 1.1 µM and inactive = higher.

What was measured:
Assay in all cases: NCI tumour cell line growth inhibition, 48 h
[1] = test system: HOP-18
[2] = test system: DMS-273
[3] = test system: DLD-1
[4] = test system: DMS-114
[5] = test system: SNB-78
[6] = test system: M19-MEL
[7] = test system: XF498
[8] = test system: BT-549

Cc1ccc(NC(=O)CCC(=O)C2Cc3ccccc3C2=O)cc1C (stereo not drawn)
GI50 [1]: > 100 µM (inactive) | GI50 [2]: > 100 µM (inactive) | GI50 [3]: > 100 µM (inactive) | GI50 [4]: > 100 µM (inactive) | GI50 [5]: > 100 µM (inactive) | GI50 [6]: > 100 µM (inactive) | GI50 [7]: > 100 µM (inactive)

O=C1CCCCCCCCCCC1CN1CCCC1 (stereo not drawn)
GI50 [8]: 31.4 µM (inactive)

O=C1CC(c2c[nH]c3ccccc23)C(=O)N1c1ccccc1 (stereo not drawn)
GI50 [2]: > 100 µM (inactive) | GI50 [3]: > 100 µM (inactive) | GI50 [5]: > 100 µM (inactive) | GI50 [6]: > 100 µM (inactive) | GI50 [7]: > 100 µM (inactive)

O=C1C(c2c(O)[nH]c3ccc(F)cc23)=Nc2ccccc21
GI50 [8]: > 100 µM (inactive)

C#CCn1c(=O)c(C)cn(/C(=C\C(=O)OCC)C(=O)OCC)c1=O
GI50 [8]: 9.71 µM (inactive)

CN1CCC(n2[nH]c(-c3ccccc3)c(Cc3ccccc3)c2=O)CC1 [BENZPIPERYLON]
GI50 [8]: > 100 µM (inactive)

CC(C)(CN1C(=O)C(Cl)=C(Cl)C1=O)CN1C(=O)C(Cl)=C(Cl)C1=O
GI50 [1]: 19.4 µM (inactive) | GI50 [2]: 6.92 µM (inactive) | GI50 [3]: 3.38 µM (inactive) | GI50 [4]: 9.75 µM (inactive) | GI50 [5]: 19 µM (inactive) | GI50 [6]: 7.66 µM (inactive)

CCCCc1c(O)nc(Nc2nc3ccccc3[nH]2)[nH]c1=O
GI50 [8]: > 100 µM (inactive)

CN(C)S(=O)(=O)c1ccc2c(c1)/C(=C1/Nc3ccccc3C1=O)C(=O)N2
GI50 [8]: 15 µM (inactive)

CCN1CCC(O)(/C=C/c2ccc(Cl)c(Cl)c2)C(C(=O)/C=C/c2ccc(Cl)c(Cl)c2)C1 (stereo not drawn)
GI50 [8]: 0.733 µM (active)

C=CCNC(=O)N1CC(C)C(=O)Nc2ccccc21 (stereo not drawn)
GI50 [8]: > 100 µM (inactive)

CO/N=C1\CC(C)N2C(=O)C(C(C)C)NC(=O)C(NC(=O)c3c4nc5c(C(=O)NC6C(=O)NC(C(C)C)C(=O)N7C(C)CC(O)C7C(=O)N(C)CC(=O)N(C)C(C(C)C)C(=O)OC6C)ccc(C)c5oc-4c(C)c(=O)c3N)C(CO)OC(=O)C(C)N(C)C(=O)CN(C)C(=O)C12 (stereo not drawn)
GI50 [8]: 2.45 µM (inactive)

Clc1ccc(NCc2nnc(COc3ccc(OCc4nnc(CNc5ccc(Cl)cc5)o4)c(Cl)c3)o2)cc1
GI50 [8]: 22.3 µM (inactive)

Oc1ccc(Cn2c(-c3ccc(O)c(O)c3)nc3ccccc32)cc1O
GI50 [8]: 10.4 µM (inactive)

N[C@@H]1CCN(c2c(F)cc3c(=O)c(C(=O)O)cn4c3c2Oc2c-4ccc3c2ccc2ccccc23)C1
GI50 [8]: > 100 µM (inactive)

COc1ccc(-c2cs/c(=N\c3ccccc3)n2CC(O)c2ccc([N+](=O)[O-])cc2)cc1 (stereo not drawn)
GI50 [8]: > 100 µM (inactive)

O=C(c1nc2ccccc2nc1O)C(O)c1ccco1 (stereo not drawn)
GI50 [2]: > 100 µM (inactive) | GI50 [4]: 52.6 µM (inactive) | GI50 [5]: > 100 µM (inactive) | GI50 [6]: > 100 µM (inactive) | GI50 [7]: > 100 µM (inactive)

O=[N+]([O-])c1ccc(C(O)/C(=N/O)c2nc3ccc(Cl)cc3nc2O)cc1 (stereo not drawn)
GI50 [2]: > 100 µM (inactive) | GI50 [3]: > 100 µM (inactive) | GI50 [4]: > 100 µM (inactive) | GI50 [6]: > 100 µM (inactive) | GI50 [7]: > 100 µM (inactive)

O=C1CCC2(CCC(=O)NC2=O)C(=O)N1
GI50 [2]: > 100 µM (inactive) | GI50 [4]: > 100 µM (inactive) | GI50 [6]: > 100 µM (inactive) | GI50 [7]: > 100 µM (inactive)

CC(C)CCNC(=O)C(CC(C)C)NC(=O)[C@H]1O[C@@H]1C(=O)O (stereo partly drawn)
GI50 [8]: > 100 µM (inactive)

CC/C(Cl)=N\OC(=O)Nc1ccccc1OC(F)(F)F
GI50 [8]: 3.11 µM (inactive)

Cc1cc(S(=O)(=O)N/C(=N/N)NCCc2ccccc2)c(S)cc1Cl
GI50 [8]: 15.4 µM (inactive)

C[C@@H]1O[C@@H](O[C@H]2CC[C@]3(C=O)[C@H]4CC[C@]5(C)[C@@H](c6ccc(=O)oc6)CC[C@]5(O)[C@@H]4CC[C@]3(O)C2)[C@H](O)[C@H](O)[C@H]1O[C@@H]1O[C@H](CO)[C@@H](O)[C@H](O)[C@H]1O [HELLEBRIN]
GI50 [1]: 0.00518 µM (active) | GI50 [2]: 0.00775 µM (active) | GI50 [4]: 0.00208 µM (active) | GI50 [8]: 0.00509 µM (active) | GI50 [5]: 0.0375 µM (active) | GI50 [6]: 0.0375 µM (active) | GI50 [7]: 0.0375 µM (active)

O=c1c(Cl)c(Cl)cnn1CCCl
GI50 [2]: 5.27 µM (inactive) | GI50 [3]: 1.47 µM (inactive) | GI50 [4]: 4.3 µM (inactive) | GI50 [8]: 3.47 µM (inactive) | GI50 [5]: 11.8 µM (inactive) | GI50 [6]: 2.67 µM (inactive) | GI50 [7]: 3 µM (inactive)

Cc1ccc(-c2nc(-c3cnccn3)n(C3OC(CO)C(O)C(O)C3O)n2)cc1 (stereo not drawn)
GI50 [8]: > 100 µM (inactive)

CCOC(=O)/C([O-])=C(\C(=O)OCC)[n+]1c(C)n(C)c2ccccc21
GI50 [1]: > 100 µM (inactive) | GI50 [2]: > 100 µM (inactive) | GI50 [3]: > 100 µM (inactive) | GI50 [4]: > 100 µM (inactive) | GI50 [5]: > 100 µM (inactive) | GI50 [6]: > 100 µM (inactive)

CC(=O)N(C(C)=O)c1ncc(-n2nc(-c3ccccc3)cc2-c2ccccc2)c(-c2ccccc2)n1
GI50 [8]: > 10 µM (inactive)

COc1ccc2c3c([nH]c2c1CC=C(C)C)C(=O)C=C(C)C3=O
GI50 [1]: 12.1 µM (inactive) | GI50 [2]: > 25 µM (inactive) | GI50 [3]: > 25 µM (inactive) | GI50 [4]: 18.3 µM (inactive) | GI50 [6]: 11.6 µM (inactive) | GI50 [7]: > 25 µM (inactive)

Cc1cc(C)n(C2=NS(=O)(=O)c3ccccc3N2C)n1
GI50 [8]: > 100 µM (inactive)

N#C/C(=N/Nc1[nH]cnc1C(N)=O)C(=O)Nc1ccccc1
GI50 [8]: > 100 µM (inactive)
